Target: T1, ABL2 (Arg) (Homo sapiens, UniProt P42684)
T1 construct: purchased Thermo Fisher Scientific (Life Technologies) SelectScreen
Assay: SelectScreen Z'LYTE
Format: biochemical
Method in brief: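 SelectScreen broad panel; activity (Z'LYTE, Adapta) plus binding formats. ATP: Km app for CSF1R Z'LYTE; 10 for CAMK1 Adapta. Readout = % per kinase.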

T1 sequence (P42684 whole entry): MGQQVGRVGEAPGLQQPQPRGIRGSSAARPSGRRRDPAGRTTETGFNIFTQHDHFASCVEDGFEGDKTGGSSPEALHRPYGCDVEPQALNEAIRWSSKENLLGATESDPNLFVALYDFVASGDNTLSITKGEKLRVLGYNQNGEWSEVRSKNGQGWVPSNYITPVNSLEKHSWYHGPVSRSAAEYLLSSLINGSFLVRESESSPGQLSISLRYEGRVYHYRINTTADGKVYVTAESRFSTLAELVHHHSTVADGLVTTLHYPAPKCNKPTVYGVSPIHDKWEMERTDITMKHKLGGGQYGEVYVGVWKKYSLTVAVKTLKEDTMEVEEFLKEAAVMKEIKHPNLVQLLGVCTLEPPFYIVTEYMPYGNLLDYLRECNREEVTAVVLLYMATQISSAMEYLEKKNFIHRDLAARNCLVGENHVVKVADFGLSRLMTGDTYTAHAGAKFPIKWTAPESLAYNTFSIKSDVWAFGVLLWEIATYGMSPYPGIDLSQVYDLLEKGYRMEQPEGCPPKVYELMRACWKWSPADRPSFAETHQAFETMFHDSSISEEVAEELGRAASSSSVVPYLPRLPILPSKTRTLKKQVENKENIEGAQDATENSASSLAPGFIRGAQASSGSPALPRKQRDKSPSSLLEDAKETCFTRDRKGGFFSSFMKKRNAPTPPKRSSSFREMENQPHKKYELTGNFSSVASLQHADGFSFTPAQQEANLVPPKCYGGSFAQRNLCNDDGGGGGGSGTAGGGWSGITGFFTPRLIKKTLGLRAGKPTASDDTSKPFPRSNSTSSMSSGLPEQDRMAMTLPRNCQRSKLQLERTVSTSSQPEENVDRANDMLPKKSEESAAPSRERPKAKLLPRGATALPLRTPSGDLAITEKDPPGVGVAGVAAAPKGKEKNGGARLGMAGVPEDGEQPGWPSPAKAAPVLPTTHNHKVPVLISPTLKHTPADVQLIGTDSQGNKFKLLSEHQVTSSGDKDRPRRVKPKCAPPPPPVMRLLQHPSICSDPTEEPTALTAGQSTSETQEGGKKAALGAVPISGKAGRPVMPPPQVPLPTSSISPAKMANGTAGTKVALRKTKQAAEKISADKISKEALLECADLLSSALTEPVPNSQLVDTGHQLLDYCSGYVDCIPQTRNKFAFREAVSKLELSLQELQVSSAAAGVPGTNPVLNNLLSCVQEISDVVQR

SMILES: CN(C(=O)CN1CCOCC1)c1ccc2sc3c(-c4cccc5c(=O)cc(N6CC7CCC(C6)O7)oc45)cccc3c2c1 [NU5455]
- inhibition at 1 µM: -10.3%

Reference: publication PMC6934184, “Selective DNA-PKcs inhibition extends the therapeutic index of localized radiotherapy and chemotherapy” (The Journal of Clinical Investigation, 2019)
